In patent publication US9079899B2, “Anti-staphylococcal celecoxib derivatives” (THE OHIO STATE UNIVERSITY, priority 2010, dated 2015):
In brackets after ≈: the same amount, converted by molar mass. Entries after “also recorded” stand apart in the source; their conditions may differ. Like-named read-outs stand apart in the source and are kept apart here.

Legend:
S. aureus (ATCC 29213) = test: MIC, broth microdilution; format: cell-based; conditions: Staphylococcus aureus
[1] = system: S. epidermidis (ATCC 35984); test: MIC, broth microdilution; format: cell-based; conditions: Staphylococcus epidermidis
[2] = system: HT-29 human colon adenocarcinoma cells; test: Antiproliferative assay (MTT); format: cell-based; conditions: for IC50: Homo sapiens, HT-29, 24-h exposure, 10% FBS-supplemented RPMI 1640, MTT; for Selectivity ratio: IC50 (HT-29) / MIC against S. aureus
Experimental: As celecoxib has been reported to be cytotoxic to cancer cells, the growth inhibitory activities of celecoxib and selected derivatives were assessed in. HT-29 human colon adenocarcinoma cells after 24-h exposure in 10% FBS-supplemented RPMI 1640 medium.
Antiproliferative assay. The cytotoxicity of individual test agents in HT-29 human colon adenocarcinoma cells was evaluated by using the 3-(4,5-dimethylthiazol-2-yl)-2,5-diphenyltetrazolium (MTT) assay. Briefly, HT-29 cells were seeded into 96-well plates at 1×10^4 cells/well (with a minimum of 6 wells per test condition) in RPMI 1640 medium supplemented with 10% FBS and 10 μg/ml of gentamicin. After overnight incubation at 37° C. under 5% CO2, the medium from each well was removed and replenished with fresh aliquots of the same medium containing various concentrations of test agents dissolved in DMSO (final concentration, 0.1%). Control cells were treated with DMSO alone at a concentration equal to that in drug-treated cells. After 24 h of drug exposure, the medium was removed and replaced by 100 μl of 0.5 mg/ml MTT in 10% FBS-containing medium, and the cells were incubated in the CO2 incubator at 37° C. for 2 h. Subsequently, medium was removed from each well, and the reduced MTT dye was dissolved with 100 μl of DMSO per well. Absorbance at 570 nm was measured with a plate reader. The 50% inhibitory concentration (IC50) of each drug was determined from dose-response curves by using CalcuSyn software (Biosoft, Cambridge, United Kingdom).

S. aureus = test: CFU of S. aureus after exposure to celecoxib at the MIC; format: cell-based; conditions: at the MIC of 32 μg/ml, after 24 h
From the text: The inventors examined the suppressive effect of celecoxib on the growth of S. aureus (ATCC 29213), S. epidermidis (ATCC 35984), and two different strains of MRSA (ATCC 33592 and SCCmec VT), as shown in Table IX.

MRSA (ATCC 33592) = test: MIC, broth microdilution; format: cell-based, methicillin-resistant Staphylococcus aureus; conditions: Staphylococcus aureus; read-out: MIC MRSA (ATCC 33592)
three strains of MRSA = test: MIC, text statements on the three strains of MRSA together; format: cell-based, methicillin-resistant Staphylococcus aureus; conditions: Staphylococcus aureus, read-out: MIC against MRSA
Experimental: Antibacterial assays. The MIC of each agent was determined following the guidelines for the broth microdilution method recommended by the Clinical and Laboratory Standards Institute. Wikler, M. A. Performance Standards for Antimicrobial Susceptibility Testing; Eighteenth Informational Supplement Clinical and Laboratory Standards Institute: 2008. Briefly, bacteria grown overnight on Luria Bertani (LB) agar plates were suspended in phosphate-buffered saline (PBS) to an O.D. of 1.0 at 600 nm, which was equivalent to 2×10^9 CFU/ml, and then diluted in CAMHB to a final concentration of 5×10^5 CFU/ml. […] The MIC of each agent was defined as the lowest concentration at which no growth of bacteria was observed.

MRSA ATCC 33592 = test: Time-kill assay; format: cell-based, methicillin-resistant Staphylococcus aureus; conditions: for reduction in CFU: after 24-h exposure to 8 times the MIC, CAMHB
Experimental: Numbers of viable bacteria in the broth after each exposure period were enumerated by CFU assay, and the results expressed as CFU/ml. Points indicate means, and bars indicate SD (n=3). The dashed line represents 99.9% cell killing. Ctl, control.
Otherwise, it is considered bacteriostatic. Pankey, G. A.; Sabath, L. D. Clin. Infect. Dis., 38, 864-870 (2004). To category these novel agents, represented by compounds 9, 36, and 46, in this regard, their time-killing kinetics were assessed in MRSA ATCC 33592 over a 24-h treatment period. Overnight-grown bacteria were inoculated in cation-adjusted Muller Hinton broth (CAMHB) at a concentration of 5×10^5 CFU/ml followed by exposure to individual compounds at 2- to 8-fold their respective MIC values. […] Accordingly, compounds 36 and 46 were classified as bactericidal. As the killing was time-dependent, the antibacterial effect of these agents was not caused by the disruption of membrane integrity.
Time-kill assay. To analyze the kinetics of bacterial cell killing, MRSA ATCC 33592 cells at a density of 5×10^5 CFU/ml were treated with test agents at 2-, 4-, and 8-fold MICs in triplicate in 24-well plates. Bacterial survival in medium containing DMSO at a concentration equal to that used for drug-treated bacteria served as control. At different times after the start of drug exposure, a 100 μl aliquot of the bacterial suspension was taken from each well and serially diluted with PBS. The diluted samples were spread onto LB agar plates followed by incubation at 37° C. for 16 h. The bacterial colonies on each plate were enumerated, and the number of viable bacteria in each well was expressed as CFU per milliliter.

MRSA (SCCmec VT) = test: MIC, broth microdilution; format: cell-based, methicillin-resistant Staphylococcus aureus
[3] = system: S. lugdunesis (NTUH isolate); test: MIC, broth microdilution; format: cell-based; conditions: read-out: MIC S. lugdunesis (NTUH isolate)
S. aureus (ATCC 12598) = test: MIC, broth microdilution; format: cell-based; conditions: Staphylococcus aureus, ATCC12598
[4] = system: S. epidermidis (ATCC 12228); test: MIC, broth microdilution; format: cell-based; conditions: Staphylococcus epidermidis, ATCC12228
MRSA (ATCC 49476) = test: MIC, broth microdilution; format: cell-based, methicillin-resistant Staphylococcus aureus; conditions: Staphylococcus aureus
MRSA 33592 = test: Survival of MRSA-infected mice; format: in vivo, C57BL/6 mice; conditions: once, 1 h postinfection, 5×10^7 CFU i.p.
Experimental: (A) Effect of intraperitoneal administration of Cpd-36 and Cpd-46 on survival of methicillin-resistant Staphylococcus aureus-infected mice. C57BL/6 mice were inoculated intraperitoneally with 5×10^7 CFU of MRSA 33592. At 1 h postinfection, mice were treated intraperitoneally once with vehicle, Cpd-36 or Cpd-46 at 30 mg/kg (B) Effect of oral administration of Cpd-46 on survival of MRSA 33592-infected mice. One hour after intraperitoneal inoculation with 5×10^7 CFU of MRSA 33592, C57BL/6 mice were treated orally once with Cpd-46 at 100 mg/kg or vehicle. Survival data are presented as Kaplan-Meier survival curves for each treatment group (n=5). The difference in the mean survival times of the groups was statistically significant at P values of 0.05.

[5] = system: S. haemolyticus (ATCC 29970); test: MIC, broth microdilution; format: cell-based; conditions: Staphylococcus haemolyticus, ATCC29970
S. hominis (ATCC 27844) = test: MIC, broth microdilution; format: cell-based; conditions: Staphylococcus hominis, ATCC27844
[6] = system: S. saprophyticus (ATCC 15305); test: MIC, broth microdilution; format: cell-based; conditions: Staphylococcus saprophyticus, ATCC15305
[7] = ATCC29213, 24 h, CAMHB, 24 h, 37° C., read-out: MIC S. aureus (ATCC 29213)
[8] = ATCC35984, 24 h, CAMHB, 24 h, 37° C., read-out: MIC S. epidermidis (ATCC 35984)
[9] = Table XIII, S. aureus (SSCmecVT)
[10] = Staphylococcus aureus, MRSA, read-out: MIC MRSA (SCCmec VT)

Structure (SMILES) | IC50 [2] [µg/mL] | MIC (S. aureus (ATCC 29213); [7]) [µg/mL] | MIC [1, 8] [µg/mL] | MIC (MRSA (ATCC 33592)) [µg/mL] | MIC (MRSA (SCCmec VT); [10]) [µg/mL] | MIC (S. aureus (ATCC 12598)) [µg/mL] | MIC [4] [µg/mL] | MIC (MRSA (ATCC 49476)) [µg/mL] | reduction in CFU (MRSA ATCC 33592) [%] | also measured
Cc1ccc(-c2cc(C(F)(F)F)nn2-c2ccc(S(N)(=O)=O)cc2)cc1 [Celecoxib, celecoxib] | 18 (≈ 47.2 µM) | – | – | – | – | – | – | – | – | MIC (S. aureus (ATCC 29213); ATCC29213, Table IX, S. aureus (ATCC 29213), read-out: MIC): 32 µg/mL (≈ 83.9 µM); MIC ([1]; ATCC35984, Table IX, S. epidermidis (ATCC 35984), read-out: MIC): 16 µg/mL (≈ 42 µM); decrease in CFU relative to control (S. aureus): 6 log
NC(=O)c1ccc(-n2nc(C(F)(F)F)cc2-c2c3ccccc3cc3ccccc23)cc1 [Compound 9, 4-(5-Anthracen-9-yl-3-trifluoromethyl-pyrazol-1-yl)-benzamide] | 12 (≈ 27.8 µM) | ≤ 2 | ≤ 2 | 2 (≈ 4.64 µM) | – | – | – | – | 99.14 | MIC (three strains of MRSA): 0.5 to 2 µg/mL (≈ 1.16 to 4.64 µM); dose-dependent effect on cell killing (MRSA ATCC 33592; range of 2×-8×MIC): did not show a dose-dependent effect
NS(=O)(=O)Nc1ccc(-n2nc(C(F)(F)F)cc2-c2ccc3c(ccc4ccccc43)c2)cc1 [Compound 36, N-[4-(5-Phenanthren-2-yl-3-trifluoromethyl-pyrazol-1-yl)-phenyl]-aminosulfonamide] | 12 (≈ 24.9 µM) | ≤ 2 | ≤ 2 | – | – | – | – | – | 99.91 | MIC (MRSA (SCCmec VT); [9]): 1 µg/mL (≈ 2.07 µM); MIC [3]: 2 µg/mL (≈ 4.15 µM); Selectivity ratio [2]: 12
Cc1ccc(-c2cc(C(F)(F)F)nn2-c2ccc(NS(N)(=O)=O)cc2)cc1 [Compound 41, N-[4-(5-p-Tolyl-3-trifluoromethyl-pyrazol-1-yl)-phenyl]-aminosulfonamide] | 28 (≈ 70.6 µM) | 4 (≈ 10.1 µM) | 4 (≈ 10.1 µM) | 4 (≈ 10.1 µM) | 4 (≈ 10.1 µM) | 4 (≈ 10.1 µM) | 4 (≈ 10.1 µM) | 4 (≈ 10.1 µM) | – | –

Further lines, with some results ahead:

IC50 [2] [µg/mL] | MIC (S. aureus (ATCC 29213); [7]) [µg/mL] | MIC [1, 8] [µg/mL] | MIC (MRSA (ATCC 33592)) [µg/mL] | MIC (MRSA (SCCmec VT); [10]) [µg/mL] | MIC (S. aureus (ATCC 12598)) [µg/mL] | MIC [4] [µg/mL] | MIC (MRSA (ATCC 49476)) [µg/mL] | Structure (SMILES) | reduction in CFU (MRSA ATCC 33592) [%] | also measured
9 (≈ 19 µM) | 1 (≈ 2.12 µM) | – | 1 (≈ 2.12 µM) | 1 (≈ 2.12 µM) | 1 (≈ 2.12 µM) | 1 (≈ 2.12 µM) | 1 (≈ 2.12 µM) | Cc1ccc(-c2ccc(-c3cc(C(F)(F)F)nn3-c3ccc(NS(N)(=O)=O)cc3)cc2)cc1 [Compound 43, N-{4-[5-(4′-Methylbiphenyl-4-yl)-3-trifluoromethyl-pyrazol-1-yl]-phenyl}-aminosulfonamide] | – | –
10 (≈ 18.6 µM) | 1 (≈ 1.86 µM) | – | 1 (≈ 1.86 µM) | 1 (≈ 1.86 µM) | 1 (≈ 1.86 µM) | 1 (≈ 1.86 µM) | 1 (≈ 1.86 µM) | NS(=O)(=O)Nc1ccc(-n2nc(C(F)(F)F)cc2-c2ccc(-c3ccc(Br)cc3)cc2)cc1 [Compound 44, N-{4-[5-(4′-Bromobiphenyl-4-yl)-3-trifluoromethyl-pyrazol-1-yl]-phenyl}-aminosulfonamide] | – | –
20 (≈ 41.5 µM) | – | – | – | – | – | – | – | NS(=O)(=O)Nc1ccc(-n2nc(C(F)(F)F)cc2-c2c3ccccc3cc3ccccc23)cc1 [Compound 46, N-[4-(5-Anthracen-9-yl-3-trifluoromethyl-pyrazol-1-yl)-phenyl]-aminosulfonamide] | 99.99 | MIC (MRSA (SCCmec VT); [9]): 0.5 µg/mL (≈ 1.04 µM); Selectivity ratio [2]: 40; classification bactericidal / bacteriostatic (MRSA ATCC 33592; bactericidal = 99.9% reduction in inoculum within 24 h): bactericidal; also recorded: bacteriostatic; survival of MRSA-infected mice (MRSA 33592; intraperitoneal, 30 mg/kg): improve the survival; survival of MRSA-infected mice (MRSA 33592; oral, 100 mg/kg): improve the survival
11 (≈ 22.8 µM) | – | – | 2 (≈ 4.15 µM) | 2 (≈ 4.15 µM) | – | 2 (≈ 4.15 µM) | 2 (≈ 4.15 µM) | NS(=O)(=O)Nc1ccc(-n2nc(C(F)(F)F)cc2-c2ccc3cc4ccccc4cc3c2)cc1 [Compound 47, N-[4-(5-Anthracen-2-yl-3-trifluoromethyl-pyrazol-1-yl)-phenyl]-aminosulfonamide] | – | MIC [5]: 16 µg/mL (≈ 33.2 µM); MIC (S. hominis (ATCC 27844)): 2 µg/mL (≈ 4.15 µM); MIC [6]: 8 µg/mL (≈ 16.6 µM)
